Twelve compounds from PubChem BioAssay (NCI) can be followed below.

Common to all, as to test: inhibition of tumour cell growth, NCI panel, 48 h
Test [1] has as its system NCI-H226 lung.
Test [2] deals with HCT-116 colon.
The subject of test [3] is HCT-15 colon.
Test [4] deals with 786-0 renal.
The test system of test [5] is A549 NSCLC.
Test [6] concerns CCRF-CEM leukemia.
For test [7], the system named is NCI-H23 lung.
The test system of test [8] is OVCAR-5 ovarian.
In test [9] the test system is SF-295 CNS.
The test system of test [10] is MDA-N.
In test [11] the test system is HOP-92 NSCLC.

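Compound exposure: 48 hours, 5 concentrations, 96-well plates. The concentration for full growth arrest is given as TGI.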

Take `Cc1ccc2c(c1)C(=O)C(C1OC(=O)c3ccccc31)C2` (configuration not stated): the TGI in test [1], in [2], in test [3], in [4], in test [5] and in test [6] was more than 100 µM throughout. Also, the TGI in test [7], in test [8], in test [9], in test [10] and in test [11] was more than 100 µM in each case.

As to `C[Si](C)(c1ccccc1)[C@H]1CCCC=C1CCNC1c2ccccc2CCc2ccccc21`, the TGI in test [1], in [2], in test [3], in [4], in test [5] and in [6] was more than 100 µM in each case. The TGI in test [7], in test [8], in test [9], in test [10] and in test [11] was more than 100 µM throughout.

In the case of `O=C(CCc1ccccc1)On1c(-c2ccccc2)nc2ccccc2c1=S`, the TGI in [1] is 29.9 µM; in test [2] it was 8.81 µM; in test [3] it was 67.5 µM; in test [4], more than 100 µM; in test [5], more than 100 µM; in [6], more than 100 µM. The TGI was 28 µM in [7]; 50.5 µM in test [8]; more than 100 µM in [9]; more than 100 µM in [10]; more than 100 µM in test [11].

Consider `O=C1Nc2ccccc2/C1=c1\[nH]c(=O)/c(=C\c2ccc(OCc3ccccc3)cn2)[nH]c1=O`, for which the TGI in test [1], in test [2], in [3], in test [4], in test [5] and in [6] was more than 100 µM each time. Also, the TGI was more than 100 µM in [7]; more than 100 µM in test [8]; 50.5 µM in [9]; more than 100 µM in test [10]; 76.8 µM in [11].

In the case of `COc1ccc(-n2sc3ncccc3c2=O)cc1`, the TGI in test [1] was more than 100 µM; in [2], 32.6 µM; in [3] it was 44.2 µM; in [4] it was 32.3 µM; in test [5], more than 100 µM; in test [6], more than 100 µM. In addition, the TGI is 36.8 µM in [7]; 64.2 µM in test [8]; more than 100 µM in [9]; 40.7 µM in test [10]; 58.6 µM in [11].

Take `CC(C)(C)N(Cc1ccc2c(c1)OCO2)C(=O)/C=C\Sc1ccccc1`: the TGI in test [1], in [2], in [3], in [4], in [5] and in test [6] was more than 100 µM each time. Besides, the TGI in test [7] is more than 100 µM; in [8], more than 100 µM; in [9], more than 100 µM; in test [10], more than 100 µM; in [11], 91 µM.

For `CC1(C)CC(=O)C2=C(C1)OC1=C(CC(C)(C)CC1=O)C2c1ccccc1[N+](=O)[O-]` (configuration not stated), the TGI in test [1], in test [2], in [3], in test [4], in test [5] and in test [6] was more than 100 µM each time. The TGI in [7], in test [8], in test [9], in test [10] and in [11] was more than 100 µM throughout.

On to `C[N+]1(CCN[N+]2(C)CCCCC2)CCc2ccccc2C1` (configuration not stated), for which the TGI in test [1], in test [2], in test [3], in test [4], in test [5] and in test [6] was more than 100 µM throughout. In addition, the TGI in test [7], in [8], in [9], in test [10] and in test [11] was more than 100 µM throughout.

Consider `CC1CC(=O)N(N(C)C)C(C#N)(C#N)C1(C#N)C#N` (configuration not stated), for which the TGI in test [1] is 67 µM; in [2] it was 51.7 µM; in test [3], 31.6 µM; in test [4], 28.6 µM; in test [5], more than 74.2 µM; in [6] it was 4.8 µM. The TGI was 43.8 µM in test [7]; 51.8 µM in test [8]; more than 77.4 µM in test [9]; 33.2 µM in [10]; 26 µM in test [11].

Regarding `c1cnc(N2CCN(Cc3c[nH]c4ccccc34)CC2)nc1`, the TGI in test [1] was more than 100 µM; in [2], more than 100 µM; in test [3] it was more than 100 µM; in test [4] it was 31.9 µM; in test [5] it was more than 100 µM; in [6], more than 100 µM. Also, the TGI in test [7], in test [8], in [9], in [10] and in test [11] was more than 100 µM each time.

Take `N#C[C@H](c1nc2ccccc2s1)c1nc2ccccc2nc1Cl`: the TGI in test [1] was more than 100 µM; in test [2] it was more than 100 µM; in [3], 22.9 µM; in test [4], more than 100 µM; in test [5] it was more than 100 µM; in test [6], more than 100 µM. Also, the TGI in test [7] is 32.3 µM; in [8], 39 µM; in [9], 35.7 µM; in test [10] it was more than 100 µM; in test [11], 37.9 µM.

Consider `COc1cc(N(Cc2ccc3oc(=O)c(-c4ccccc4)nc3c2)Cc2ccc3oc(=O)c(-c4ccccc4)nc3c2)cc(OC)c1OC`, for which the TGI in [1], in test [2], in test [3], in [4], in test [5] and in test [6] was more than 10 µM throughout. In addition, the TGI in [7], in test [8], in [9], in [10] and in test [11] was more than 10 µM in each case.
